Data from US6159961A, “Cephem compounds” (Fujisawa Pharmaceutical Co., Ltd., priority 1995, dated 2000).
≈ marks a conversion by molar mass, not a printed value. Like-named read-outs stand apart in the source and are kept apart here.

Experiments:
[1] = Urinary excretion, bile excretion and plasma level after oral administration to rats; assay type: in vivo, Male JCL SD rats; settings: rat, 20 mg/kg, fasted; for dose excreted at 24 h: 0-24 hours
Experimental: Male JCL SD atrain rats (age, 6 weeks) were used. Test compound was suspended in 0.5% methyl cellurose solution. The rats were atarved overnight before dosing with 20 mg /kg. Urine samples were collected at 0 to 6 and 6 to 24 hours after oral administration. Bile samples were collected at same interval as that of urine samples after a polyethylene cannula was inserted into the bile duct. Plasma samples were obtained by heart puncture at specified times after dosing. Concentrations of test compounds were measured by the disc-plate diffusion method using E. coli ATCC 39188 as test organism and nutrient agar (Difco) as the test medium. The diluents for standard curves were prepared with plasma from rat for determining the plasma levels, with 1/15 M phosphate buffer (pH7.0) for determining the urinary and biliary levels. The plate were incubated at 37° C. for 18 hours and the zone of inhibition were mesured and the recovery rate was calculated by comparing with the standard.

E. faecalis = assay: In vitro antibacterial activity (MIC), two-fold agar-plate dilution method, E. faecalis; assay type: cell-based; settings: Enterococcus faecalis, HI-agar, 37° C., 20 hours, read-out: MIC (minimal inhibitory concentration)
Experimental: (§1) In vitro antibacterial activity were determined by the two-fold agar-plate dilution method as described below.
(§2) One loopful of an overnight culture of each test strain in Trypticase-soy broth (10^8 viable cells per ml) was streaked on heart infusion agar (HI-agar)containing graded concentrations of representative test compound, and the minimal inhibitory concentration (MIC) was expressed in terms of mg/ml after incubation at 37° C. for 20 hours.

[2] = system: Methicillin susceptible S. aureus; assay: In vitro antibacterial activity (MIC), two-fold agar-plate dilution method, methicillin susceptible S. aureus; assay type: cell-based; settings: Staphylococcus aureus, HI-agar, 37° C., 20 hours, read-out: MIC (minimal inhibitory concentration)
Experimental: as §1, §2

[3] = bile, read-out: Biliary recovery in 24 hours
[4] = urine, read-out: Urinary recovery in 24 hours

dose excreted at 24 h [1, 3] [%]	dose excreted at 24 h [1, 4] [%]	MIC (E. faecalis) [µg/mL]	MIC [2] [µg/mL]	AUC ([1]; plasma) [ng·h/mL]	Cmax ([1]; plasma) [ng/mL]	Structure (SMILES)
19.6	17	2100 (≈ 3980 µM)	230 (≈ 436 µM)	–	–	Nc1nc(/C(=N/O)C(=O)N[C@@H]2C(=O)N3C(C(=O)O)=C(SCc4cccnc4)CS[C@H]23)c(Cl)s1 [(2)]
29	39.7	2900 (≈ 5620 µM)	250 (≈ 485 µM)	52900	21800	Nc1nc(/C(=N/O)C(=O)N[C@@H]2C(=O)N3C(C(=O)O)=C(SCc4cn[nH]c4)CS[C@H]23)c(Cl)s1 [(1)]
37.5	7.62	2100 (≈ 4060 µM)	270 (≈ 522 µM)	–	–	Nc1nc(/C(=N/O)C(=O)N[C@@H]2C(=O)N3C(C(=O)O)=C(SCc4cnn[nH]4)CS[C@H]23)c(Cl)s1 [(3)]
